Laboratory results as given in ChEMBL document CHEMBL2385034, “Discovery, synthesis and in combo studies of a tetrazole analogue of clofibric acid as a potent hypoglycemic agent” (2013).
Active and inactive are the calls of the source. No cut-off for these calls is given here.

Assays:
[1] = biological target: 11-beta-hydroxysteroid dehydrogenase 1 (Homo sapiens) (UniProt P28845); test: Inhibition of full-length human 11beta-HSD1 expressed in HEK293 cells at 10 uM after 2 hrs by scintillation proximity assay relative to control; type: cell-based
11-beta-hydroxysteroid dehydrogenase 1 (Homo sapiens), sequence (P28845 whole entry, looked up): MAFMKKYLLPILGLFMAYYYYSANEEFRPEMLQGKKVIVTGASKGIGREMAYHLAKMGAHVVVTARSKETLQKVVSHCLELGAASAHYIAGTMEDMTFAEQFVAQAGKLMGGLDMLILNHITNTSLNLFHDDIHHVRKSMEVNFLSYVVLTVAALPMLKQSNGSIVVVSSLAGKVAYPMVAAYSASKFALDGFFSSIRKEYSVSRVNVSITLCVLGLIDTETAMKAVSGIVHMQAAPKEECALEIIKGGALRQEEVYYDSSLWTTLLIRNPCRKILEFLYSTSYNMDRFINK

Rattus norvegicus [2] = species on record: Rattus norvegicus; test: Hypoglycemic activity in STZ-nicotinamide-induced Wistar rat diabetic model after 1 to 7 hrs; type: functional, organism-based
Rattus norvegicus [3] = test: Hypoglycemic activity in STZ-nicotinamide-induced Wistar rat diabetic model at 50 mg/kg, ig after 1 to 7 hrs relative to control; type: functional; conditions: route intragastric
[4] = biological target: 11-beta-hydroxysteroid dehydrogenase 1 (Homo sapiens) (UniProt P28845); test: Inhibition of full-length human 11beta-HSD1 expressed in HEK293 cells at 10 uM after 2 hrs by scintillation proximity assay relative to clofibrate; type: cell-based
[5] = biological target: 11-beta-hydroxysteroid dehydrogenase 1 (Homo sapiens) (UniProt P28845); test: Inhibition of full-length human 11beta-HSD1 expressed in HEK293 cells at 10 uM after 2 hrs by scintillation proximity assay relative to clofibric acid; type: cell-based
Rattus norvegicus [6] = test: Hypoglycemic activity in STZ-nicotinamide-induced Wistar rat diabetic model at 5 mg/kg, po after 1 to 7 hrs; type: functional, organism-based; design: dose 5 mg/kg

Structure (SMILES): CC(C)(Oc1ccc(Cl)cc1)C(=O)O
- inhibition [1]: 19.1%
- Activity (Rattus norvegicus [2]): inactive

Structure (SMILES): CC(C)(Oc1ccc(Cl)cc1)C(=O)Nc1nnn[nH]1
- inhibition [1]: 51.2%
- Activity (Rattus norvegicus [3]): 16%
- fold change (FC) [4]: 2.5
- fold change (FC) [5]: 2.5

Structure (SMILES): CC1(C)[C@@H](OC(=O)CCC(=O)O)CC[C@]2(C)[C@H]3C(=O)C=C4[C@@H]5C[C@@](C)(C(=O)O)CC[C@]5(C)CC[C@@]4(C)[C@]3(C)CC[C@@H]12
- inhibition [1]: 78.3%

Structure (SMILES): CCOC(=O)C(C)(C)Oc1ccc(Cl)cc1
- inhibition [1]: 18.1%

Structure (SMILES): COc1ccc(Cl)cc1C(=O)NCCc1ccc(S(=O)(=O)NC(=O)NC2CCCCC2)cc1
- Activity (Rattus norvegicus [6]): Active
